Consider two compounds from ChEMBL document CHEMBL6121021, “Design and Synthesis of Topoisomerases-Histone Deacetylase Dual Targeted Quinoline-Bridged Hydroxamates as Anticancer Agents” (J Med Chem, 2025).

Data set [1] deals with Histone deacetylase 5 (Homo sapiens, UniProt Q9UQL6). In words: Inhibition of His-tagged recombinant human HDAC5 catalytic domain by fluorogenic assay.
Data set [2] in a line: Metabolic stability in mouse hepatocytes assessed as hepatic clearance at 2 uM measured upto 120 min by LC-MS/MS analysis. In kind it is ADME, cell-based, Hepatocyte.
Data set [3] in a line: Antiproliferative activity against human PBMC cells at 10 uM incubated for 48 hrs by MTT assay. In kind it is toxicity, cell-based.
The subject of data set [4] is H9c2. The data set is described as follows: Antiproliferative activity against rat H9c2 cells at 10 uM by JC-1 staining based analysis. In kind it is toxicity, cell-based. To be noted: h9c2, 10 µM.
Data set [5] in a line: Drug metabolism in human hepatocytes assessed as glucuronide conjugated M8 metabolite formation at 10 uM by LC-MS/MS analysis. In kind it is ADME, cell-based, Hepatocyte.
For data set [6], the system named is A549. In words: Induction of mitophagy in human A549 cells at 500 nM by MitoTracker Green dye based analysis. In kind it is functional, cell-based.
In data set [7] the test system is A549. The data set is described as follows: In vivo anti-metastatic activity in human A549 cells xenografted in athymic nude Crl:NU-Foxn1nu mouse assessed as decrease in ZEB1 mRNA level at 30 mg/kg, po administered twice a week for 1 month by qPCR analysis. In kind it is functional, organism-based. To be noted: time 1.0 months. For orientation: In xenograft studies the graft and the host belong to different species.

A short description of data set [8]: Drug metabolism in human hepatocytes assessed as beta-oxidation M2 metabolite formation at 10 uM by LC-MS/MS analysis. In kind it is ADME, cell-based, Hepatocyte.
The target of data set [9] is Cytochrome P450 1A2 (Homo sapiens, UniProt P05177). In words: Inhibition of CYP1A2 in human liver microsomes preincubated for 10 mins followed by NADPH addition measured after 5 mins by LC-MS/MS analysis. In kind it is ADME, Microsome.
Data set [10] in a line: Drug metabolism in human hepatocytes assessed as formation of O-demethylated M6 metabolite conjugated with sulphate at 10 uM by LC-MS/MS analysis. In kind it is ADME, cell-based, Hepatocyte.
Data set [11] in a line: Antiproliferative activity against human NCI-H1975 cells harboring EGFR T790M mutant incubated for 48 hrs by MTT assay. In kind it is functional, cell-based. The note with it: NCI-H1975, 48 h. (In general: Tetrazolium assays rely on reduction of a dye to a coloured formazan, in cell work by metabolically active cells.)
Data set [12] has as its system A549. In words: In vivo anti-migratory activity in human A549 cells xenografted in athymic nude Crl:NU-Foxn1nu mouse assessed as decrease in vimentin mRNA level at 30 mg/kg, po administered twice a week for 1 month by qPCR analysis. In kind it is functional, organism-based. To be noted: time 1.0 months.
Data set [13] deals with Histone deacetylase 11 (Homo sapiens, UniProt Q96DB2). The data set is described as follows: Inhibition of recombinant human HDAC11 by fluorogenic assay.
The subject of data set [14] is MDA-MB-231. The data set is described as follows: Anti-cancer activity against human MDA-MB-231 cells assessed as decrease in p53 level at 1 to 3 uM incubated for 48 hrs by immunoblot analysis. In kind it is functional, cell-based. The note with it: dose 1-3 µM. (In general: Immunoblotting shows a protein as a band on a membrane.)
Data set [15] can be described thus: Drug metabolism in human hepatocytes assessed as oxidative deamination M1 metabolite formation at 10 uM by LC-MS/MS analysis. In kind it is ADME, cell-based, Hepatocyte.
The nature of data set [16]: Drug metabolism in human hepatocytes assessed as O-dealkylation M5 metabolite formation at 10 uM by LC-MS/MS analysis. In kind it is ADME, cell-based, Hepatocyte.
The test system of data set [17] is MDA-MB-231. In words: Anti-cancer activity against human MDA-MB-231 cells assessed as decrease in CDK-4 level at 10 uM incubated for 48 hrs by immunoblot analysis. In kind it is functional, cell-based.
For data set [18], the system named is MDA-MB-231. The data set is described as follows: Anti-cancer activity against human MDA-MB-231 cells assessed as decrease in p21 level at 1 uM incubated for 48 hrs by immunoblot analysis. In kind it is functional, cell-based.

The source made the active and inactive calls. The rule behind the calls is not given here.

Chain of Histone deacetylase 5 (Q9UQL6 whole entry, the tested form may be a part): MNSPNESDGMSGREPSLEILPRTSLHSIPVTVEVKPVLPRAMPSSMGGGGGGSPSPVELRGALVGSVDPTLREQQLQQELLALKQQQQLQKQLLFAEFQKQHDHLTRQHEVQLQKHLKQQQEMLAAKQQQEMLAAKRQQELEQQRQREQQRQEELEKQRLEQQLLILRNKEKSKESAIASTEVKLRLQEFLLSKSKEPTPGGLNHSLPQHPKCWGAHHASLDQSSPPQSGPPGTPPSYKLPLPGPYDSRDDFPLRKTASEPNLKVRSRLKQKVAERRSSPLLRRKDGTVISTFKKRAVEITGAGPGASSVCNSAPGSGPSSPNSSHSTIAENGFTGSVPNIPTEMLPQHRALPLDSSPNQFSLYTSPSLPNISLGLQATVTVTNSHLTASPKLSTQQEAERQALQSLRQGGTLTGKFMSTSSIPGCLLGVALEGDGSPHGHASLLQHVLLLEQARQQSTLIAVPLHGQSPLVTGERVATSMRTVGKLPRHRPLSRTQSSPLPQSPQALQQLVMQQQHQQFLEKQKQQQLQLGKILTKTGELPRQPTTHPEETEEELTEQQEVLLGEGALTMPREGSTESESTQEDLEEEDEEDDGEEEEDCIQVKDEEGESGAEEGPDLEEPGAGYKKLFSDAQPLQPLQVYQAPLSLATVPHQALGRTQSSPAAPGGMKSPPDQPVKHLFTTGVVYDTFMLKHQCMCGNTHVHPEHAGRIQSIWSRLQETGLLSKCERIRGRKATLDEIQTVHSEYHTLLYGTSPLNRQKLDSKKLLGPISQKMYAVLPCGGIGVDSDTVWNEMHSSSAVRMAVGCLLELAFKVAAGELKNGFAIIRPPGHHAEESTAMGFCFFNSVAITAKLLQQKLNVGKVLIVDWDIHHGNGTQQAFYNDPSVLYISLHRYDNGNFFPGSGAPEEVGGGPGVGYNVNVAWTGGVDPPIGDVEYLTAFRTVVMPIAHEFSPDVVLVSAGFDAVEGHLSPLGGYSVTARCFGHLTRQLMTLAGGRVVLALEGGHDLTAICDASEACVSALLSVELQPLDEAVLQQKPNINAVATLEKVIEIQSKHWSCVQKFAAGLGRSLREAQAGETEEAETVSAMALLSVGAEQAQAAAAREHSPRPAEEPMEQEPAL
Chain of Cytochrome P450 1A2 (P05177 whole entry): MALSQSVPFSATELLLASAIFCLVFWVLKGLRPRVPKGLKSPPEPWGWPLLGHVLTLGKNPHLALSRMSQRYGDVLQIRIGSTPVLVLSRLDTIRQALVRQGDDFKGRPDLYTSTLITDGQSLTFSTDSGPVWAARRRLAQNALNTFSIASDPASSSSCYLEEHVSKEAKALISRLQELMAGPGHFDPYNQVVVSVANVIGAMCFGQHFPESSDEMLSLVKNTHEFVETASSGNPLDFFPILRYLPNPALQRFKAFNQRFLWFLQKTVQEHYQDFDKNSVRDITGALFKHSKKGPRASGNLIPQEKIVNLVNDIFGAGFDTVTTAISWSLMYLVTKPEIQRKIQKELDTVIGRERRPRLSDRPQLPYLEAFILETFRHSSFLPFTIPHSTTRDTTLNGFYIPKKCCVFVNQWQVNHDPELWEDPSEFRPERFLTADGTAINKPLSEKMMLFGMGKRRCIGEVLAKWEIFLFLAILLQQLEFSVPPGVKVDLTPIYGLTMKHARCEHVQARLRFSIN
Chain of Histone deacetylase 11 (Q96DB2 whole entry): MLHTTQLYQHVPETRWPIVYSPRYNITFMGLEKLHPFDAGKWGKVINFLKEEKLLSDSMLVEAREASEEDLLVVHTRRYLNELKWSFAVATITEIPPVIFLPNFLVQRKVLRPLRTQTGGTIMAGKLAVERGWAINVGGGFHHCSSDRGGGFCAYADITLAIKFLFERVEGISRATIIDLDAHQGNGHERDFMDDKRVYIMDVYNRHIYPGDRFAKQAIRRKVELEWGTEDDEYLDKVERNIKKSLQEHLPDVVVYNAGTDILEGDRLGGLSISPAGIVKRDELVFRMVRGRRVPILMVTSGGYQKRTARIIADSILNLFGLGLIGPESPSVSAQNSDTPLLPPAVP

On to `COc1ccc(-c2ccc3cc(OCCCCCC(=O)NO)ccc3n2)cc1`, for which the IC50 (in general, the concentration needed to halve the response being measured) in data set [1] is 88.2 nM; in data set [9] it was 4420 nM; in data set [11], less than 250 nM; in data set [13], 58.1 nM. The CLhep predicted at 2 µM in data set [2] was 65.9 mL/min/kg. The Activity result in [3] and in data set [4] was “Non-toxic” in each case. In addition, the Drug metabolism result in data set [5], in data set [8], in data set [10], in data set [15] and in data set [16] was “metabolite_detected” each time. Moreover, the result in [6], in [7], in [12] and in data set [14] was Active.

Consider `COc1ccc(-c2ccc3ccc(OCCCCCCC(=O)NO)cc3n2)cc1I`, for which the result in data set [17] was Active. Besides, in data set [18], the result was inactive.
